Source: US10251824B2, “Method for inducing pluripotent stem cells and pluripotent stem cells prepared by said method” (AMOREPACIFIC CORPORATION, priority 2013, dated 2019)

Key:
Oct3/4 [1] = test: Oct3/4 immunocytochemistry after digitonin permeabilization (Test Example 2-1); type: cell-based, human; settings: 5 μg/mL shikimic acid (water); permeabilized NHDF-Neonatal; day 4
Experimental: (§1) Then, 400× images were obtained using the Carl Zeiss Confocal microscope LSM510 by immunocytochemistry using Oct3/4 antibody (Genetex, GTX100622, ×200) and Alexa Fluor® 488 goat anti-rabbit IgG. The ratio of Oct3/4-positive cells was determined by analyzing the Carl Zeiss Confocal microscopic images obtained from the Oct3/4 ICC experiment, for 4 or more images per sample, 5 on average.

NHDF-Neonatal [2] = test: Proliferating ability of dermal cells, WST-1 (Test Example 5); type: cell-based, human; settings: 5 μg/mL shikimic acid; WST-1, absorbance 450 nm
Experimental: 2,000 NHDF-Neonatal (CC-2509, Lonza, USA) were attached on a 96-well plate. […] Then, we were subculturing it for 7 days (as confluency becomes to 90% or below on 7th day). After 6 days later, 10 μL of WST-1 was treated and absorbance was measured at 450 nm.

NHDF-Neonatal [3] = test: Colony-forming ability of dermal cells, crystal violet (Test Example 4-2); type: cell-based, human
Experimental: (§2) On day 5 after subculturing, the cells (200 cells) were attached on a 60-mm plate. On day 17, the cells were washed with ice-cold PBS and then fixed with ice-cold methanol kept at −20° C. for 10 minutes. The cells were stained by treating for 5-10 minutes with a working solution, which had been prepared by diluting 1% crystal violet in an ethanol stock solution 1/10 with PBS, washed 4 times with PBS and then imaged. For quantitative analysis, the cells were eluted by treating with an elution buffer consisting of 50% ethanol, 40% DW, and 10% acetic acid for 5 minutes. Then, absorbance was measured at 580 nm after transferring 200 μL of the cells to a 96-well plate.

[4] = tested on: alkaline phosphatase (ALP); settings: 5 μg/mL shikimic acid; day 11
Experimental: Untreated NHDF-Neonatal were used as a negative control group. On day 6 after the treatment, the cells (5,000 cells) were attached on a 12-well plate. 5 days later, i.e., on day 11, the cells were fixed with 3.8% formaldehyde in PBS and kept at room temperature for 15 minutes. Then, the cells were treated with 200 μL of the NBT/BCIP® ALP substrate solution diluted in 10 mL of ALP buffer, with 0.5 mL each time. 20 hours later, the cells were observed under the Olympus CKX41 optical microscope at 40× magnification.

NHDF-Neonatal [5] = test: Colony-forming ability of dermal cells, crystal violet (Test Example 4-1); type: cell-based, human; settings: shikimic acid, concentration not given; absorbance 580 nm
Experimental: as §2, with “day 10” for “day 5”, “day 23,” for “day 17,”

[6] = tested on: alkaline phosphatase (ALP); test: Alkaline phosphatase (ALP) staining, shikimic acid at different concentrations (Test Example 3-2); type: cell-based, human; settings: 10 μM or 10 mM shikimic acid; day 12; versus normal HDF
Text: On day 5 after the treatment, the cells (100,000 cells) were attached on a 6-well plate.

Oct3/4 [7] = test: Oct3/4 immunocytochemistry, shikimic acid at different concentrations (Test Example 2-2); type: cell-based, human; settings: for Ratio of Oct3/4-positive cells (%) Mean: NHDF-Neonatal, day 8
Experimental: as §1

O=C(O)C1=C[C@@H](O)[C@@H](O)[C@H](O)C1 [shikimic acid]
Ratio of Oct3/4-positive cells (%) Mean (Oct3/4 [1]): 29%
Increase of cell division as compared to the normal control group (FIG. 18) (NHDF-Neonatal [2]): 2 times
Increase of colony-forming ability as compared to the negative control group (FIG. 17) (NHDF-Neonatal [3]; 10 μM, 50 μM, 100 μM, 1 mM or 10 mM shikimic acid, absorbance 580 nm, day 17): 1.27-5.06 times
Crystal violet stained area, colony formation (FIG. 15) (NHDF-Neonatal [3]; 10 μM-10 mM shikimic acid, day 17, versus negative control): larger stained area
Colony-forming ability, comparison of concentrations (FIG. 17) (NHDF-Neonatal [3]; 1 mM shikimic acid): the most increase in colony-forming ability
Expression of ALP (FIG. 12) [4]: increased expression of ALP
Increase of colony-forming ability as compared to the negative control group (FIG. 16) (NHDF-Neonatal [5]): about 3.8 times
Expression of ALP (FIG. 13) [6]: the expression of ALP was increased remarkably
Expression of the Oct3/4 gene in HDF (FIG. 11) (Oct3/4 [7]; 10 μM or 10 mM shikimic acid, compared to untreated normal HDF): increased expression of the Oct3/4 gene
Ratio of Oct3/4-positive cells (%) Mean (Oct3/4 [7]; 10 μM shikimic acid (water)): 29%
Ratio of Oct3/4-positive cells (%) Mean (Oct3/4 [7]; 10 mM shikimic acid (water)): 27%
Percentage of the cells positive for the Oct3/4 gene, on average (Oct3/4 [7]; shikimic acid in water, 10 μM and 10 mM): 27-29%
